Drawing on US20250154127A1, “BICYCLIC HETEROARYL COMPOUNDS AND USES THEREOF” (ETERN BIOPHARMA (SHANGHAI) CO., LTD., priority 2022, published 2025), this text covers IC50 for 26 compounds.

For experiment [1], the target named is TEAD1(210-426) binding to YAP(50-100) (Homo sapiens, UniProt P28347). The experiment in a line: TR-FRET Assay for TEAD1(210-426) Binding to YAP(50-100). The note with it: His-TEAD 10 nM, YAP-Biotin peptide 50 nM. Put shortly: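 10 nM His-TEAD1 preincubated 30 min at room temperature with compound (3-fold dilutions, 12 points, 1% DMSO), then 50 nM biotin-YAP peptide added.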
Background: In TR-FRET formats the signal depends on donor and acceptor labels being close together.

Another experiment deals with MSTO-211H cells. The experiment in a line: Proliferation Assay (CellTiter-Glo Luminescent Cell Viability Assay). It is filed as cell-based. The note with it: Homo sapiens, 96 hours treatment. The procedure, abridged: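 MSTO-211H cells, 1,500/well in RPMI 1640 with 10% FBS, plated overnight, then treated 96 h with 9-point 3-fold compound series in duplicate (DMSO below 0.5%). Viability by CellTiter-Glo luminescence; inhibition relative to DMSO wells, IC50 by four-parameter fit.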
For orientation: ATP-based viability assays read luminescence as a measure of living cells.

TEAD1(210-426) binding to YAP(50-100), sequence (P28347 209-426): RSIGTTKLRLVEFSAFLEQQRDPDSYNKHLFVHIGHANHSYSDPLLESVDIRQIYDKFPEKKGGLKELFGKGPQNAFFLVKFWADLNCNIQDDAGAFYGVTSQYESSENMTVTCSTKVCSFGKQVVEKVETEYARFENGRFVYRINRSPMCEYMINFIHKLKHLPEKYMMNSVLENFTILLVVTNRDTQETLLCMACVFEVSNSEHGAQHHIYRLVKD

Broadly, the IC50 is the midpoint of a concentration-inhibition curve. `Nc1ccnc(Cn2ccc(-n3nc(-c4ccc(C(F)(F)F)cc4)c4ncccc43)cc2=O)n1` [Compound 119, 1-((4-aminopyrimidin-2-yl)methyl)-4-(3-(4-(trifluoromethyl)phenyl)-1H-pyrazolo[4,3-b]pyridin-1-yl)pyridin-2(1H)-one]: the results for the IC50 (in experiment [1]; in the experiment with MSTO-211H cells) were not above 100 nM and not above 1000 nM, respectively.
In the same order, the values of `COCCOc1nccc(Cn2ccc(-c3nn(-c4ccc(C(F)(F)F)cc4)c4c(F)cccc34)cc2=O)n1` [Compound 134, 4-(7-fluoro-1-(4-(trifluoromethyl)phenyl)-1H-indazol-3-yl)-1-((2-(2-methoxyethoxy)pyrimidin-4-yl)methyl)pyridin-2(1H)-one] are not above 100 nM and not above 1000 nM.
As for `CN(CCO)c1nccc(Cn2ccc(-c3nn(-c4ccc(C(F)(F)F)cc4)c4nccnc34)cc2=O)n1` [Compound 106, 1-((2-((2-hydroxyethyl)(methyl)amino)pyrimidin-4-yl)methyl)-4-(1-(4-(trifluoromethyl)phenyl)-1H-pyrazolo[3,4-b]pyrazin-3-yl)pyridin-2(1H)-one], the values for the IC50 (in experiment [1]; in the experiment on MSTO-211H cells) were not above 100 nM and not above 1000 nM, respectively.
The corresponding values for `Nc1ccnc(Cn2ccc(-c3nn(-c4ccc(C(F)(F)F)cc4)c4ccccc34)cc2=O)n1` [Compound 17, 1-((4-aminopyrimidin-2-yl)methyl)-4-(1-(4-(trifluoromethyl)phenyl)-1H-indazol-3-yl)pyridin-2(1H)-one] are not above 100 nM and not above 1000 nM.
The corresponding values for `C[C@@H](c1ccccn1)n1ccc(-c2nn(-c3ccc(C(F)(F)F)cc3)c3cc(C#N)ccc23)cc1=O` [Compound 31, (S)-3-(2-oxo-1-(1-(pyridin-2-yl)ethyl)-1,2-dihydropyridin-4-yl)-1-(4-(trifluoromethyl)phenyl)-1H-indazole-6-carbonitrile] are more than 1000 nM and not above 1000 nM.
In the same order, the values of `O=c1cc(-c2nn(-c3ccc(C(F)(F)F)cc3)c3c(Cl)cccc23)ccn1Cc1ccnc(NCCO)n1` [Compound 148, 4-(7-chloro-1-(4-(trifluoromethyl)phenyl)-1H-indazol-3-yl)-1-((2-((2hydroxyethyl)amino)pyrimidin-4-yl)methyl)pyridin-2(1H)-one] are not above 100 nM and not above 1000 nM.
On to `O=c1cc(-c2nn(-c3ccc(C(F)(F)F)cc3)c3ccccc23)ccn1Cc1cccnn1` [Compound 62, 1-(pyridazin-3-ylmethyl)-4-(1-(4-(trifluoromethyl)phenyl)-1H-indazol-3-yl)pyridin-2(1H)-one], for which the IC50 in experiment [1] is not above 100 nM; in the experiment on MSTO-211H cells, not above 1000 nM.
The corresponding values for `Cn1ccc(Cn2ccc(-n3nc(-c4ccc(C(F)(F)F)cc4)c4ncccc43)cc2=O)n1` [Compound 41, 1-((1-methyl-1H-pyrazol-3-yl)methyl)-4-(3-(4-(trifluoromethyl)phenyl)-1H-pyrazolo[4,3-b]pyridin-1-yl)pyridin-2(1H)-one] are not above 100 nM and not above 1000 nM.
Take `O=c1cc(-c2nn(-c3ccc(C(F)(F)F)cc3)c3ccccc23)ccn1Cc1cccnc1` [Compound 18, 1-(pyridin-3-ylmethyl)-4-(1-(4-(trifluoromethyl)phenyl)-1H-indazol-3-yl)pyridin-2(1H)-one]: the figures for the IC50 (in experiment [1]; in the experiment on MSTO-211H cells) were not above 100 nM and not above 1000 nM, respectively.
In the same order, the values of `Nc1cncc(Cn2ccc(-c3nn(-c4ccc(C(F)(F)F)cc4)c4ccccc34)cc2=O)n1` [Compound 65, 1-((6-aminopyrazin-2-yl)methyl)-4-(1-(4-(trifluoromethyl)phenyl)-1H-indazol-3-yl)pyridin-2(1H)-one] are not above 100 nM and not above 1000 nM.
For `CNc1ccnc(Cn2ccc(-c3nn(-c4ccc(C(F)(F)F)cc4)c4c(F)cccc34)cc2=O)n1` [Compound 129, 4-(7-fluoro-1-(4-(trifluoromethyl)phenyl)-1H-indazol-3-yl)-1-((4-(methylamino)pyrimidin-2-yl)methyl)pyridin-2(1H)-one], the IC50 in experiment [1] was not above 100 nM; in the experiment on MSTO-211H cells, not above 1000 nM.
In the same order, the values of `Cn1cncc1Cn1ccc(-c2nn(-c3ccc(C(F)(F)F)cc3)c3ccccc23)cc1=O` [Compound 39, 1-((1-methyl-1H-imidazol-5-yl)methyl)-4-(1-(4-(trifluoromethyl)phenyl)-1H-indazol-3-yl)pyridin-2(1H)-one] are more than 1000 nM and not above 1000 nM.
In the case of `CN(CCO)c1nccc(Cn2ccc(-c3nn(-c4ccc(C(F)(F)F)cc4)c4c(F)cccc34)cc2=O)n1` [Compound 138, 4-(7-fluoro-1-(4-(trifluoromethyl)phenyl)-1H-indazol-3-yl)-1-((2-((2-hydroxyethyl)(methyl)amino)pyrimidin-4-yl)methyl)pyridin-2(1H)-one], the IC50 in experiment [1] was 100 to 1000 nM; with MSTO-211H cells, not above 1000 nM.
In the same order, the values of `C[C@@H](c1ccccn1)n1ccc(-c2nn(-c3ccc(C(F)(F)F)cc3)c3cc(C(=O)O)ccc23)cc1=O` [Compound 29, (S)-3-(2-oxo-1-(1-(pyridin-2-yl)ethyl)-1,2-dihydropyridin-4-yl)-1-(4-(trifluoromethyl)phenyl)-1H-indazole-6-carboxylic acid] are more than 1000 nM and not above 1000 nM.
The corresponding values for `CO[C@H]1C[C@@H](Nc2ccnc(Cn3ccc(-c4nn(-c5ccc(C(F)(F)F)cc5)c5ccccc45)cc3=O)n2)C1` [Compound 90, 1-((4-(((1s,3s)-3-methoxycyclobutyl)amino)pyrimidin-2-yl)methyl)-4-(1-(4-(trifluoromethyl)phenyl)-1H-indazol-3-yl)pyridin-2(1H)-one] are 100 to 1000 nM and not above 1000 nM.
In the same order, the values of `CNc1nccc(Cn2ccc(-c3nn(-c4ccc(C5CC5)cc4)c4c(F)cccc34)cc2=O)n1` [Compound 149, 4-(1-(4-cyclopropylphenyl)-7-fluoro-1H-indazol-3-yl)-1-((2-(methylamino)pyrimidin-4-yl)methyl)pyridin-2(1H)-one] are not above 100 nM and not above 1000 nM.
`CNc1nccc([C@H](C)n2ccc(-c3nn(-c4ccc(C(F)(F)F)cc4)c4ncccc34)cc2=O)n1` [Compound 131, (S)-1-(1-(2-(methylamino)pyrimidin-4-yl)ethyl)-4-(1-(4-(trifluoromethyl)phenyl)-1H-pyrazolo[3,4-b]pyridin-3-yl)pyridin-2(1H)-one]: the IC50 in experiment [1] is not above 100 nM; in the experiment on MSTO-211H cells, not above 1000 nM.
In the same order, the values of `COCCN(C)c1nccc(Cn2ccc(-c3nn(-c4ccc(C(F)(F)F)cc4)c4c(F)cccc34)cc2=O)n1` [Compound 147, 4-(7-fluoro-1-(4-(trifluoromethyl)phenyl)-1H-indazol-3-yl)-1-((2-((2-methoxyethyl)(methyl)amino)pyrimidin-4-yl)methyl)pyridin-2(1H)-one] are not above 100 nM and not above 1000 nM.
In the same order, the values of `O=c1cc(-c2nn(-c3ccc(C(F)(F)F)cc3)c3ccccc23)ccn1Cc1nccc(N2CCOCC2)n1` [Compound 84, 1-((4-morpholinopyrimidin-2-yl)methyl)-4-(1-(4-(trifluoromethyl)phenyl)-1H-indazol-3-yl)pyridin-2(1H)-one] are not above 100 nM and not above 1000 nM.
With `COCCOc1nccc(Cn2ccc(-n3nc(-c4ccc(C(F)(F)F)cc4)c4c(F)cccc43)cc2=O)n1` [Compound 137, 4-(4-fluoro-3-(4-(trifluoromethyl)phenyl)-1H-indazol-1-yl)-1-((2-(2-methoxyethoxy)pyrimidin-4-yl)methyl)pyridin-2(1H)-one], the IC50 is not above 100 nM in experiment [1] and not above 1000 nM in the experiment with MSTO-211H cells.
The corresponding values for `O=c1cc(-c2nn(-c3ccc(C(F)(F)F)cc3)c3ccccc23)ccn1Cc1ccnc(OCCO)n1` [Compound 93, 1-((2-(2-hydroxyethoxy)pyrimidin-4-yl)methyl)-4-(1-(4-(trifluoromethyl)phenyl)-1H-indazol-3-yl)pyridin-2(1H)-one] are not above 100 nM and not above 1000 nM.
In the case of `COCCNc1ccnc(Cn2ccc(-c3nn(-c4ccc(C(F)(F)F)cc4)c4ccccc34)cc2=O)n1` [Compound 78, 1-((4-((2-methoxyethyl)amino)pyrimidin-2-yl)methyl)-4-(1-(4-(trifluoromethyl)phenyl)-1H-indazol-3-yl)pyridin-2(1H)-one], the IC50 was not above 100 nM in experiment [1] and not above 1000 nM in the experiment on MSTO-211H cells.
The corresponding values for `COCCOc1nccc(Cn2ccc(-c3nn(-c4ccc(C(F)(F)F)cc4)c4ccccc34)cc2=O)n1` [Compound 82, 1-((2-(2-methoxyethoxy)pyrimidin-4-yl)methyl)-4-(1-(4-(trifluoromethyl)phenyl)-1H-indazol-3-yl)pyridin-2(1H)-one] are not above 100 nM and not above 1000 nM.
As for `CN(CCO)c1nccc(Cn2ccc(-c3nn(-c4ccc(C(F)(F)F)cc4)c4ccccc34)cc2=O)n1` [Compound 94, 1-((2-((2-hydroxyethyl)(methyl)amino)pyrimidin-4-yl)methyl)-4-(1-(4-(trifluoromethyl)phenyl)-1H-indazol-3-yl)pyridin-2(1H)-one], the IC50 in experiment [1] is not above 100 nM; in the experiment with MSTO-211H cells it was not above 1000 nM.
With `CNc1ccnc(Cn2ccc(-c3nn(-c4ccc(C(F)(F)F)cc4)c4ccccc34)cc2=O)n1` [Compound 69, 1-((4-(methylamino)pyrimidin-2-yl)methyl)-4-(1-(4-(trifluoromethyl)phenyl)-1H-indazol-3-yl)pyridin-2(1H)-one], the figures for the IC50 (in experiment [1]; with MSTO-211H cells) were not above 100 nM and not above 1000 nM, respectively.
Regarding `CNc1nccc(Cn2ccc(-c3nn(-c4ccc(OC(F)(F)F)cc4)c4ncccc34)cc2=O)n1` [Compound 59, 1-((2-(methylamino)pyrimidin-4-yl)methyl)-4-(1-(4-(trifluoromethoxy)phenyl)-1H-pyrazolo[3,4-b]pyridin-3-yl) pyridin-2(1H)-one], the IC50 in experiment [1] was not above 100 nM; in the experiment on MSTO-211H cells, not above 1000 nM.
